Laboratory results as given in patent US10407408B2, “Imide derivatives and use thereof as medicine” (MITSUBISHI TANABE PHARMA CORPORATION, priority 2015, dated 2019).
Structures can show the parent of a compound that is named as a salt.

Each compound was assayed on proMMP-9 production by human TNFα stimulated THP-1 cell (assay: Action on proMMP-9 production by human TNFα stimulated THP-1 cell (ELISA of culture supernatant)). Conditions: THP-1 cells, human TNFα 10 ng/mL, 24 hr; IC50 from 3 concentrations (5, 50, 500 or 1, 10, 100 nmol/L); read-out: proMMP-9 suppression rate IC50.
Format: cell-based
Description: Experimental Example 1: Action of Human TNFα Stimulated THP-1 Cell on proMMP-9 Production
THP-1 cell (human monocytic leukemia cell line) was adjusted to 1×10^7 cells/mL in a culture medium (10% fetal bovine serum/RPMI1640 medium), and dispensed to a 96 well multiplate. This was equilibrated under the conditions of 37° C./5% CO2, and a culture medium containing human TNFα (final concentration 10 ng/mL) and a test compound was dissolved therein. After incubation under the conditions of 37° C./5% CO2 for 24 hr, the culture medium was centrifuged and the culture supernatant was collected, which was subjected to the following measurement.
Quantification of proMMP-9 in Culture Supernatant
The proMMP-9 concentration of the collected culture supernatant was quantified using a commercially available measurement reagent (manufactured by GE Healthcare, MMP-9, Human, Biotrak ELISA System).
Calculation of proMMP-9 Suppression Rate
The proMMP-9 suppression rate of the test compound was calculated from the following formula: % suppression=100−((Test−Min)/(Max−Min)×100) wherein Max is proMMP-9 concentration of culture supernatant induced by stimulation with human TNFα, without addition of a test compound (added with solvent alone) Min is proMMP-9 concentration of culture supernatant without addition of a test compound (added with solvent alone) and without stimulation with human TNFα, and Test is proMMP-9 concentration of culture supernatant induced by stimulation with human TNFα when a test compound is added.
Furthermore, the concentration of the test compound necessary for suppressing proMMP-9 production by human TNFα stimulated THP-1 cell by 50% (IC50 value) was calculated from 3 points of proMMP-9 suppression rate at test compound concentrations of 5, 50 and 500 nmol/L or 1, 10 and 100 nmol/L.
MMP-9 is produced as a precursor proMMP-9 by the stimulated cells, extracellularly activated and expresses the physiological activity as MMP-9. That is, evaluation of the suppression of proMMP-9 produced by the cell means evaluation of the suppression of production of MMP-9. The same applies to MMP-2, and evaluation of the suppression of proMMP-2 produced by the cell means evaluation of the suppression of production of MMP-2.
`Cc1ccc(C(=O)C2CCN(C(=O)c3ccc([C@@]4(C)NC(=O)NC4=O)cc3)CC2)cc1` [Example 150, (R)-5-methyl-5-{4-[4-(4-methylbenzoyl)piperidine-1-carbonyl]phenyl}imidazolidine-2,4-dione] showed an IC50 of 25 nM. Work on `Cc1ccc(OC2CCN(C(=O)c3ccc([C@@]4(C)NC(=O)NC4=O)cc3)CC2)cc1` [Example 152, (R)-5-methyl-5-[4-(4-p-tolyloxypiperidine-1-carbonyl]phenyl}imidazolidine-2,4-dione] yielded an IC50 of 14 nM. `Cc1cnc2c(c1)CCN2[C@H]1CCN(C(=O)c2ccc([C@@]3(C(C)C)NC(=O)NC3=O)cc2)C1` [Example 158, (R)-5-isopropyl-5-{4-[(S)-3-(5-methyl-2,3-dihydropyrrolo[2,3-b]pyridin-1-yl)pyrrolidine-1-carbonyl]phenyl}imidazolidine-2,4-dione] gave an IC50 of 49 nM. Work on `CCC1(c2ccc(C(=O)N3CCC(c4cc(-c5ccc(C)cc5)[nH]n4)CC3)cn2)CC(=O)NC1=O` (stereo not drawn) [Example 165, 3-ethyl-3-{5-[4-(5-p-tolyl-1H-pyrazol-3-yl)piperidine-1-carbonyl}pyridin-2-yl}pyrrolidine-2,5-dione] yielded an IC50 of 90 nM. Compound `CC[C@]1(c2ccc(C(=O)N3CCC(c4nnn(-c5ccc(C)cc5)n4)CC3)cc2)NC(=O)NC1=O` [Example 170, (R)-5-ethyl-5-{4-[4-(2-p-tolyl-2H-tetrazol-5-yl)piperidine-1-carbonyl]phenyl}imidazolidine-2,4-dione] has an IC50 of 60 nM. For `CC[C@]1(c2ccc(C(=O)N3CCC(c4cn(-c5ccc(C)cc5)cn4)CC3)cc2)NC(=O)NC1=O` [Example 175, (R)-5-ethyl-5-{4-[4-(1-p-tolyl-1H-imidazol-4-yl)piperidine-1-carbonyl]phenyl}imidazolidine-2,4-dione], the IC50 was 88 nM. Compound `CCC1(c2ccc(C(=O)N3CCC(c4cn(-c5ccc(C)cc5)nn4)CC3)cc2F)NC(=O)NC1=O` (stereo not drawn) [Example 178, 5-ethyl-5-{2-fluoro-4-[4-(1-p-tolyl-1H-[1,2,3]triazol-4-yl)piperidine-1-carbonyl]phenyl}imidazolidine-2,4-dione] has an IC50 of 34 nM. Compound `Cc1cnc(N2CCN(C(=O)c3ccc(C4(C(C)C)C(=O)NC(=O)N4C)cc3)CC2)c(C)c1` (stereo not drawn) [Example 182, 5-{4-[4-(3,5-dimethylpyridin-2-yl)piperazine-1-carbonyl]phenyl}-5-isopropyl-1-methylimidazolidine-2,4-dione] has an IC50 of 67 nM. For `Cc1cnc(NC2CN(C(=O)c3ccc([C@@]4(C(C)C)NC(=O)NC4=O)cc3)C2)c(C)c1` [Example 185, (R)-5-{4-[3-(3,5-dimethylpyridin-2-ylamino)azetidine-1-carbonyl]phenyl}-5-isopropylimidazolidine-2,4-dione.hydrochloride], the IC50 was 82 nM. Work on `Cc1cnc(N[C@@H]2CN(C(=O)c3ccc([C@@]4(C(C)C)NC(=O)NC4=O)cc3)C[C@H]2O)c(C)c1` [Example 187, (R)-5-{4-[(3R,4R)-3-(3,5-dimethylpyridin-2-ylamino)-4-hydroxypyrrolidine-1-carbonyl]phenyl}-5-isopropylimidazolidine-2,4-dione] yielded an IC50 of 19 nM. In the case of `Cc1cnc(N[C@H]2C[C@@H](C#N)N(C(=O)c3ccc([C@@]4(C(C)C)NC(=O)NC4=O)cc3)C2)c(C)c1` [Example 198, (2S,4S)-4-(3,5-dimethylpyridin-2-ylamino)-1-[4-((R)-4-isopropyl-2,5-dioxoimidazolidin-4-yl)benzoyl]pyrrolidine-2-carbonitrile], the IC50 is reported as 2 nM. With `Cc1cnc2nc(C3CCN(C(=O)c4ccc([C@@]5(C(C)C)NC(=O)NC5=O)cc4)CC3)sc2c1` [Example 220, (R)-5-isopropyl-5-{4-[4-(6-methylthiazolo[4,5-b]pyridin-2-yl)piperidine-1-carbonyl]phenyl}imidazolidine-2,4-dione] the IC50 was 55 nM. For `Cc1ccc2nc(C3CCN(C(=O)c4ccc([C@@]5(C(C)C)NC(=O)NC5=O)cc4)CC3)oc2n1` [Example 221, (R)-5-isopropyl-5-{4-[4-(5-methyloxazolo[5,4-b]pyridin-2-yl)piperidine-1-carbonyl]phenyl}imidazolidine-2,4-dione], the IC50 was 72 nM. In the case of `Cc1ccc2nc(C3CCN(C(=O)c4ccc([C@@]5(C(C)C)NC(=O)NC5=O)cc4)CC3)sc2n1` [Example 222, (R)-5-isopropyl-5-{4-[4-(5-methylthiazolo[5,4-b]pyridin-2-yl)piperidine-1-carbonyl]phenyl}imidazolidine-2,4-dione], the IC50 is reported as 76 nM. `CC(C)[C@]1(c2ccc(C(=O)N3CCC(c4nnc(-c5ccccc5)s4)CC3)cc2)NC(=O)NC1=O` [Example 227, (R)-5-isopropyl-5-{4-[4-(5-phenyl[1,3,4]thiadiazol-2-yl)piperidine-1-carbonyl]phenyl}imidazolidine-2,4-dione] gave an IC50 of 84 nM. `CC(C)[C@]1(c2ccc(C(=O)N3CCN(c4nc5ccccc5n4C)CC3)cc2)NC(=O)NC1=O` [Example 243, (R)-5-isopropyl-5-{4-[4-(l-methyl-1H-benzimidazol-2-yl)piperazine-1-carbonyl]phenyl}imidazolidine-2,4-dione] showed an IC50 of 27 nM. For `CC(C)[C@]1(c2ccc(C(=O)N3CCC(c4ncc(-c5ccccc5)s4)CC3)cc2)NC(=O)NC1=O` [Example 259, (R)-5-isopropyl-5-{4-[4-(5-phenylthiazol-2-yl)piperidine-1-carbonyl]phenyl}imidazolidine-2,4-dione], the IC50 was 60 nM. `CC(C)[C@]1(c2ccc(C(=O)N3CCC(c4nc5cc(C(F)(F)F)ccc5s4)CC3)cc2)NC(=O)NC1=O` [Example 262, (R)-5-isopropyl-5-{4-[4-(5-trifluoromethylbenzothiazol-2-yl)piperidine-1-carbonyl]phenyl}imidazolidine-2,4-dione] gave an IC50 of 13 nM. With `Cc1ccc2nc(C3CCN(C(=O)c4ccc([C@@]5(C)NC(=O)NC5=O)cc4)CC3)oc2c1` [Example 267, (R)-5-methyl-5-{4-[4-(6-methylbenzoxazol-2-yl)piperidine-1-carbonyl]phenyl}imidazolidine-2,4-dione] the IC50 was 5 nM. With `Cc1cc(C)c2c(cnn2C2CCN(C(=O)c3ccc([C@@]4(C(C)C)NC(=O)NC4=O)cc3)CC2)c1` [Example 272, (R)-5-{4-[4-(5,7-dimethylindazol-1-yl)piperidine-1-carbonyl]phenyl}-5-isopropylimidazolidine-2,4-dione] the IC50 was < 5 nM. In the case of `Cc1cc(F)c2c(C3CCN(C(=O)c4ccc([C@@]5(C)NC(=O)NC5=O)cc4)CC3)n[nH]c2c1` [Example 280, (R)-5-{4-[4-(4-fluoro-6-methyl-1H-indazol-3-yl)piperidine-1-carbonyl]phenyl}-5-methylimidazolidine-2,4-dione], the IC50 is reported as < 5 nM. For `Cc1cc(C2CC2)cnc1N1CCN(C(=O)c2ccc(C3(C4CCC4)NC(=O)NC3=O)cc2)CC1` (stereo not drawn) [Example 322, 5-cyclobutyl-5-{4-[4-(5-cyclopropyl-3-methylpyridin-2-yl)piperazine-1-carbonyl]phenyl}imidazolidine-2,4-dione], the IC50 was < 1 nM. With `Cc1cnc(N2CCN(C(=O)c3ccc(C4(C(C)(C)C)NC(=O)NC4=O)cn3)CC2)c(C)c1` (stereo not drawn) [Example 335, 5-tert-butyl-5-{6-[4-(3,5-dimethylpyridin-2-yl)piperazine-1-carbonyl]pyridin-3-yl}imidazolidine-2,4-dione] the IC50 was 1 nM. In the case of `COCC1(c2ccc(C(=O)N3CCC(c4coc5cc(C)cc(C)c45)CC3)cn2)CC(=O)NC1=O` (stereo not drawn) [Example 343, 3-{5-[4-(4,6-dimethyl-benzofuran-3-yl)piperidine-1-carbonyl]pyridin-2-yl}-3-methoxymethyl-pyrrolidine-2,5-dione], the IC50 is reported as < 3 nM. In the case of `Cc1ccc2c(C3CCN(C(=O)c4ccc([C@@]5(C)NC(=O)NC5=O)cc4)CC3)c[nH]c2c1` [Example 345, (R)-5-methyl-5-{4-[4-(6-methyl-1H-indol-3-yl)piperidine-1-carbonyl]phenyl}imidazolidine-2,4-dione], the IC50 is reported as 15 nM. In the case of `Cc1ccc(-c2cnn(C3CCN(C(=O)c4ccc([C@@]5(C)NC(=O)NC5=O)cc4)CC3)c2)cc1` [Example 346, (R)-5-methyl-5-{4-[4-(4-p-toluylpyrazol-1-yl)piperidine-1-carbonyl]phenyl}imidazolidine-2,4-dione], the IC50 is reported as 88 nM. For `CC(=O)OCN1C(=O)N[C@](C)(c2ccc(C(=O)N3CCC(n4cc5cc(C)cc(C)c5n4)CC3)cc2)C1=O` [Example 350, acetic acid (R)-4-{4-[4-(5,7-dimethylindazol-2-yl)piperidine-1-carbonyl]phenyl]-4-methyl-2,5-dioxoimidazolidin-1-ylmethyl ester], the IC50 was 115 nM.
